Literature values as cited in patent publication US20260272857A1, “AN ORALLY RAPIDLY DISINTEGRATING TABLET OF PROPRANOLOL AND ITS PROCESS OF PREPARATION” (NOVUMGEN LIMITED, priority 2023, published 2026).
Counter-ions that a name gives are not always drawn.

Legend:
[1] = in vivo
[2] = high permeability and high solubility drug

Row | Elimination half-life [1] [h] | Plasma half-life [1] [h] | BCS class in the Biopharmaceutical classification system [2] | Structure (SMILES)
1 | 8 | 3 to 6 |  | CC(C)NCC(O)COc1cccc2ccccc12 (stereo not drawn) [propranolol, 1-naphthalen-1-yloxy-3-(propan-2-ylamino) propan-2-ol]
2 |  |  | BCS class I | CC(C)NCC(O)COc1cccc2ccccc12 (stereo not drawn) [Propranolol hydrochloride]
